Test results: article PMC9504208, “Comprehensive Study of Antiretroviral Drug Permeability at the Cervicovaginal Mucosa via an In Vitro Model” (Pharmaceutics, 2022)
Like-named read-outs stand apart in the source and are kept apart here.

Key:
HEC-1A monolayer = test: Darunavir transfer across low-pH-adapted HEC-1A monolayers at apical pH 7.5 or 5.5 (LC-MS/MS); format: in vitro ADME, human; conditions: for % of darunavir transferred to the receiver compartment, absorptive direction: 2 h, n = 10
[1] = Bi-directional permeability (Papp) across HEC-1A dual chamber (Transwell) barrier model; format: in vitro ADME; conditions: human
Experimental: The apical chambers of 12-well polycarbonate and polyester systems (Corning Costar Corp, Cambridge, UK) were seeded with different densities of HEC-1A cells in 500 µL of the medium while 1500 µL culture medium was added to the basolateral chamber. -Medium in both chambers was changed every 48–72 h.

HEC-1A cells = test: Cell-associated drug and distribution between apical and basolateral compartments after absorptive permeability assay; format: in vitro ADME, human; conditions: for Cell-associated drug (HEC-1A cells): after absorptive permeability assays;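 for all read-outs here: transwell transport run over 2 h at 37 °C, radiolabelled drug quantified by liquid scintillation counting, with insert membranes also counted for mass balance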
HEC-1A barrier model = test: Permeability of labelled drug across HEC-1A model on coadministration with a second ARV; format: in vitro ADME, human; conditions: labelled drug 10 µM; for Absorptive permeability on coadministration with dapivirine: dapivirine 0–10 µM
HEC-1A cell layers [2] = test system: HEC-1A cell layers
in vitro = conditions: human, pH 7.4
[3] = ref DrugBank; cited from earlier work
HEC-1A cell layers [4] = test: Permeability across HEC-1A cell layers stimulated with poly(I:C); conditions: p > 0.05, ANOVA
[5] = test system: drug transporter mRNA expression in HEC-1A cells; test: Drug transporter mRNA expression (RT-qPCR) in stimulated HEC-1A cells; format: cell-based, human; conditions: 72 h hormone stimulation, vs ethanol control, increased
Experimental: (§1) Control was 0.1% DMSO with no drug. Cytokines were reconstituted in sterile and distilled water and added individually to cell cultures at the following concentrations: TNF-α (200 pg/mL), IL-1β (8 ng/mL), IL-6 (5 ng/mL) and IL-8 (100 ng/mL) were. […] Cells were stimulated for either drugs, cytokines or hormones for 72 h, before harvesting by centrifugation at 300× g for 10 min at 4 °C. For Lactobacillus crispatus a final MoI of 10 was used (10:1, bacterial cells:mammalian cell ratio) for co-culture in both HEC-1A and VK2/E6E7 cell lines. For Candida albicans, a final MoI of 1 for HEC-1A cells and 0.25 for VK2/E6E7 cells was used. Cells were incubated with fungal cells at 37 °C/5% CO2 for 24 h. All cell line stimulation experiments were conducted as a minimum of three biological repeats.
(§2) RNA extraction was performed using the RNeasy® Mini Kit (Qiagen, Manchester, UK). Cells were lysed by suspension in 600 μL of RLT Buffer with 1% β-mercaptoethanol (Sigma-Aldrich) and mechanical lysis into a QIAshredder (Qiagen). After the addition of 70% ethanol, the solution was loaded onto RNeasy columns for RNA purification as per the manufacturer’s instructions. DNase treatment was 15 min at room temperature. RNA was eluted from the columns with 30 μL of RNase-free ddH2O. Tapestation analysis was performed using an Agilent 2200 Tapestation system to determine the integrity of the RNA.
(§3) Synthesis of cDNA was performed using a Superscript® VILO™ kit (Life Technologies, Paisley, UK). Reverse transcription was performed at 25 °C for 10 min, 42 °C for 60 min and 85 °C for 5 min. The cDNA was then stored at −20 °C until RT-PCR assays.
(§4) SYBRgreen® PrecisionTM 2× qPCR Mastermix with ROX quencher (Primer Design, Southampton, UK) was used for all RT-qPCR assays. Individual primers were designed to target the HPRT1 and RPLP0 housekeeper genes (selected from an initial panel based on SD scores as a measure of the consistency of expression amongst all samples) in addition to seventeen ARV-associated drug transporters (9 ABC transporters and 8 SLC transporters) replicating the system contained in the TaqMan® 96-well Drug Transporter Array system (Life Technologies, Paisley, UK). Real-time quantitative PCR was performed using the 7900HT Fast Real-Time PCR system and data was analysed using the SDS 2.4 software (Applied Biosystems, Waltham, MA, USA). Cycling conditions were: 95 °C for 5 min, followed by 40 cycles of denaturation at 95 °C for 10 s, annealing at 60 °C for 10 s and extension at 72 °C for 10 s. Relative transcript levels in drug-stimulated cells were determined using the comparative Ct method (ΔΔCt method). Fold-change values of ±2–3 were considered minor, ±3–5 as moderate and >±5 as high.

[6] = test system: drug transporter mRNA expression in VK2/E6E7 cells; test: Drug transporter mRNA expression (RT-qPCR) in stimulated VK2/E6E7 cells; format: cell-based, human; conditions: 72 h hormone stimulation, vs ethanol control, increased
Experimental: as §1, §2, §3, §4

CN(C)C(=O)CCSC(SCCC(=O)O)c1cccc(/C=C/c2ccc3ccc(Cl)cc3n2)c1 (stereo not shown) [MK571]
Effect on absorptive transfer of darunavir (HEC-1A monolayer; MK571 (50 µM) in donor compartment, apical pH 5.5): reduced the absorptive transfer of darunavir to the level observed at pH 7.5

CC(C)CN(C[C@@H](O)[C@H](Cc1ccccc1)NC(=O)O[C@H]1CO[C@H]2OCC[C@H]21)S(=O)(=O)c1ccc(N)cc1 [darunavir, Darunavir]
Papp A→B at 2 h ([1]; pH 7.4, read-out: Absorptive permeability Papp): 9.66 to 11.2 ×10⁻⁶ cm/s
Papp B→A at 2 h ([1]; pH 7.4, read-out: Secretory permeability Papp): 8.59 to 9.42 ×10⁻⁶ cm/s
% Drug Distribution Apical (HEC-1A cells; 1 μM): 82.90 ± 1.76%
% Drug Distribution Basolateral (HEC-1A cells; 1 μM): 15.13 ± 1.44%
% Drug Distribution Apical (HEC-1A cells; 5 μM): 83.15 ± 2.61%
% Drug Distribution Basolateral (HEC-1A cells; 5 μM): 14.55 ± 1.88%
% Drug Distribution Cell-Associated (HEC-1A cells; 5 μM): 2.55 ± 1.22%
% Drug Distribution Apical (HEC-1A cells; 10 μM): 83.36 ± 2.12%
% Drug Distribution Basolateral (HEC-1A cells; 10 μM): 13.95 ± 1.75%
% Drug Distribution Cell-Associated (HEC-1A cells; 10 μM): 2.70 ± 1.31%
% Drug Distribution Apical (HEC-1A cells; 20 μM): 81.72 ± 1.61%
% Drug Distribution Basolateral (HEC-1A cells; 20 μM): 15.31 ± 1.22%
% Drug Distribution Cell-Associated (HEC-1A cells; 20 μM): 2.97 ± 1.27%
Cell-associated drug (HEC-1A cells) (HEC-1A cells): ≤ 3%
% of darunavir transferred to the receiver compartment, absorptive direction (HEC-1A monolayer; apical pH 5.5, basal pH 7.5, p < 0.001): 30.1 ± 6.0%
% of darunavir transferred to the receiver compartment, absorptive direction (HEC-1A monolayer; apical pH 7.5): 20 ±2.8%
Absorptive permeability on coadministration with dapivirine (HEC-1A barrier model): not altered
Permeabilities on coadministration with tenofovir (HEC-1A barrier model; tenofovir 0–100 µM): no effect
Papp (HEC-1A cell layers [2]): 8.45 ± 0.68 ×10⁻⁶ cm/s
Papp at 2 h, 10 µM (in vitro): 8.24 ± 0.6 ×10⁻⁶ cm/s
logP [3]: 2.82
Difference in Papp (A-B or B-A), poly(I:C)-stimulated vs unstimulated cell layers (HEC-1A cell layers [4]): no significant differences

OC[C@@H](O)[C@@H](O)[C@H](O)[C@H](O)CO [mannitol]
Papp A→B at 2 h ([1]; pH 7.4, Absorptive Papp of mannitol, 1% DMSO in donor compartment (initial dapivirine assay)): 2.5 to 2.61 ×10⁻⁶ cm/s
Papp A→B at 2 h ([1]; pH 7.4, Absorptive Papp of mannitol, paracellular marker in the tenofovir permeability assay): 2.09 to 3.1 ×10⁻⁶ cm/s
Papp B→A at 2 h ([1]; pH 7.4, Secretory Papp of mannitol, 1% DMSO in donor compartment (initial dapivirine assay)): 5.1 to 6.81 ×10⁻⁶ cm/s
Papp B→A at 2 h ([1]; pH 7.4, Secretory Papp of mannitol, paracellular marker in the tenofovir permeability assay): 2.7 to 2.85 ×10⁻⁶ cm/s
Papp at 2 h ([1]; pH 7.4, mannitol measured simultaneously in drug permeability assays, read-out: Papp (barrier integrity control)): < 4 ×10⁻⁶ cm/s
Papp (HEC-1A cell layers [2]): 2.23 to 2.47 ×10⁻⁶ cm/s
Papp at 2 h, 10 µM (in vitro): 1.43 to 2.17 ×10⁻⁶ cm/s

C[C@H](Cn1cnc2c(N)ncnc21)OCP(=O)(O)O [tenofovir, Tenofovir]
Papp A→B at 2 h ([1]; pH 7.4, apical to basolateral, over concentration range (tenofovir 0.1–100 µM; darunavir 0.1–20 µM, 0.01% DMSO), read-out: Absorptive permeability Papp): 1.76 to 2.06 ×10⁻⁶ cm/s
Papp B→A at 2 h ([1]; pH 7.4, basolateral to apical, over concentration range (tenofovir 0.1–100 µM; darunavir 0.1–20 µM, 0.01% DMSO), read-out: Secretory permeability Papp): 1.46 to 1.64 ×10⁻⁶ cm/s
efflux ratio at 2 h ([1]; pH 7.4, over concentration range tested, read-out: Efflux ratio (secretory/absorptive)): 0.77 to 0.83
% Drug Distribution Apical (HEC-1A cells; 0.1 μM): 97.03 ± 0.28%
% Drug Distribution Basolateral (HEC-1A cells; 0.1 μM): 2.63 ± 0.25%
% Drug Distribution Cell-Associated (HEC-1A cells; 0.1 μM): 0.34 ± 0.06%
% Drug Distribution Apical (HEC-1A cells; 1 μM): 96.85 ± 0.29%
% Drug Distribution Basolateral (HEC-1A cells; 1 μM): 2.73 ± 0.24%
% Drug Distribution Cell-Associated (HEC-1A cells; 1 μM): 0.42 ± 0.08%
% Drug Distribution Apical (HEC-1A cells; 10 μM): 96.91 ± 0.27%
% Drug Distribution Basolateral (HEC-1A cells; 10 μM): 2.79 ± 0.25%
% Drug Distribution Cell-Associated (HEC-1A cells; 10 μM): 0.3 ± 0.06%
% Drug Distribution Apical (HEC-1A cells; 100 μM): 96.59 ± 0.41%
% Drug Distribution Basolateral (HEC-1A cells; 100 μM): 2.99 ± 0.36%
% Drug Distribution Cell-Associated (HEC-1A cells; 100 μM): 0.42 ± 0.17%
Recovery from the apical compartment after absorptive permeability assays (HEC-1A cells; % of initial concentration, no Poloxamer): 96–97%
Cell-associated drug (HEC-1A cells) (HEC-1A cells): ≤ 0.5%
Absorptive permeability on coadministration with dapivirine (HEC-1A barrier model): not altered
Absorptive or secretory permeability on coadministration with darunavir (HEC-1A barrier model; darunavir 0–10 µM): did not significantly alter
Papp (HEC-1A cell layers [2]): 1.45 ± 0.21 ×10⁻⁶ cm/s
Papp at 2 h, 10 µM (in vitro): 1.06 ± 0.05 ×10⁻⁶ cm/s
Difference in Papp (A-B or B-A), poly(I:C)-stimulated vs unstimulated cell layers (HEC-1A cell layers [4]): no significant differences

C[C@]12CC[C@@H]3c4ccc(O)cc4CC[C@H]3[C@@H]1CC[C@@H]2O [β-estradiol]
BCRP mRNA expression, fold-change [5]: 2.64 ± 0.44 fold
CNT3 mRNA expression, fold-change [6]: 3.70 ± 1.43 fold
MRP3 mRNA expression, fold-change [6]: 2.14 ± 0.30 fold
